# Measurements as given in patent US9220718B2, “Sonosensitive liposome, pharmaceutical composition including the same, and method of delivering active agent to subject using the sonosensitive liposome” (Samsung Electronics Co., Ltd., priority 2013, dated 2015).
# System: Hela cells
# Assay: Cell viability by WST assay (WST-8, Cell Counting Kit-8)
# Assay type: cell-based
# Conditions: 10 ul of radical DX, 20 ug/ml of distilled water
# Experimental: The same liposomes were exposed to ultrasound for 5 minutes at different amplitudes (i.e., 50%, 75%, and 100% of the maximum amplitude) at a frequency of 20 kHz. 10 ul of the sonicated liposomes (DX concentration of 20 ug/ml) was immediately added to Hela cells as described above, and then, incubated for 30 minutes. As a control group, a group treated with 10 ul of PBS, a group treated with 10 ul of radical DX (20 ug/ml of distilled water), and a group wherein HeLa cells are incubated at a temperature of 42° C. were all included. The cell viability thereof was obtained by counting viable cells using a WST assay [2-(2-methoxy-4-nitrophenyl)-3-(4-nitrophenyl)-5-(2,4-disulfophenyl)-2H-tetrazolium, monosodium salts] (WST-8, Cell Counting Kit-8, Dojindo, Japan).
structure (smiles),measurement,value
"COc1cccc2c1C(=O)c1c(O)c3c(c(O)c1C2=O)C[C@@](O)(C(=O)CO)C[C@@H]3O[C@H]1C[C@H](N)[C@H](O)[C@H](C)O1 [radical Dx, Doxorubicin]","cell viability, compared with the sonicated liposomes (about 15%)",similar
